Data from publication PMC10586511 (Molecular Pharmacology, 2023).

Target: T1, 5-HT1AR (serotonin 1A receptor) (Homo sapiens, UniProt P08908)
T1 sequence (P08908 1-422): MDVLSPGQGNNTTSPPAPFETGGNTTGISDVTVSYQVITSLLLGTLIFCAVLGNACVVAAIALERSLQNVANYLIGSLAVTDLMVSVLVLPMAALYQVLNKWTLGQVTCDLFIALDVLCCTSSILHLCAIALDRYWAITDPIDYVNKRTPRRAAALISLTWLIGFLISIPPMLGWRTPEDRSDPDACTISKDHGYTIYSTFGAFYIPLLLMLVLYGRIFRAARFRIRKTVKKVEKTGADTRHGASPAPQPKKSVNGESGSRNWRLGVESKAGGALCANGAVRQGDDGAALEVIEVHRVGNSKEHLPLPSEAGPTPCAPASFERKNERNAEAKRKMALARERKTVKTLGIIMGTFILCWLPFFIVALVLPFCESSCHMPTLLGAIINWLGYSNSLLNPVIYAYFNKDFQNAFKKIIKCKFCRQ
Test: G protein nanoBRET
Assay type: cell-based

Row | EC50 [nM] | SMILES
1 | 537 | Cc1cnc(CNCC2(F)CCN(C(=O)c3ccc(F)c(Cl)c3)CC2)nc1 [F-15599]
2 | 170 | O=c1[nH]c2ccccc2n1CCN1CCN(c2cccc(C(F)(F)F)c2)CC1 [Flibanserin]

Row | SMILES | EC50 [nM]
3 | COc1cc2c3c(c1OC)-c1ccccc1C[C@H]3N(C)CC2 [Nuciferine] | 16600
